The record followed here is patent US20240124442A1, “TRICYCLIC-AMIDO-BICYCLIC PRMT5 INHIBITORS” (AMGEN INC., priority 2021, published 2024).

One test relates to HCT116 WT cells. In words: HCT116 WT (parent) cell line proliferation / cell viability (CellTiter-Glo, 6 days). Type of test: cell-based. The following applies: Homo sapiens, HCT-116, 144 h, 6 days treatment. Put shortly: (§1)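 Isogenic HCT116 pair (parental and MTAP-knockout) in RPMI 1640 + 10% FBS, treated 6 days with 8–9-point 1:3 dilutions from 1 or 10 μM top, or 22-point 1:2 dilutions from 10 or 50 μM top. Viability by CellTiter-Glo luminescence; IC50 from 4-parameter logistic fit or sigmoidal fit with Hill slope fixed at −1.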

The next test has as its system HCT116 MTAP null cells. The test is described as follows: HCT116 MTAP null cell line proliferation / cell viability (CellTiter-Glo, 6 days). Type of test: cell-based. The following applies: 144 h; HCT116 MTAP null cells, 6 days treatment, CellTiter-Glo cell viability; read-out: HCT-116 MTAP null IC50. The essentials:
as §1
For orientation: ATP-based viability assays read luminescence as a measure of living cells.

Usually IC50 stands for the midpoint of a concentration-inhibition curve. As to `Cc1noc2c1c(N)nc1ccc(C(=O)N(C)[C@@H]3COCc4cc(C(F)(F)F)ccc43)cc12` [Example 498, 4-amino-N,3-dimethyl-N-((4S)-7-(trifluoromethyl)-3,4-dihydro-1H-2-benzopyran-4-yl)[1,2]oxazolo[4,5-c]quinoline-8-carboxamide], the IC50 was 9110 nM in the test with HCT116 WT cells and 185 nM in the test on HCT116 MTAP null cells.
For `CN(C(=O)c1ccc2nc(N)c3cnn(C)c3c2c1)[C@@H]1COCc2cc(C(F)(F)F)ccc21` [Example 499, 4-amino-N,1-dimethyl-N-((4S)-7-(trifluoromethyl)-3,4-dihydro-1H-2-benzopyran-4-yl)-1H-pyrazolo[4,3-c]quinoline-8-carboxamide], the 50% inhibitory concentration (IC50) with HCT116 WT cells turned out to be 152 nM; with HCT116 MTAP null cells it was 4 nM.
Take `CN(C(=O)c1ccc2nc(N)c3cnn(C)c3c2c1)[C@@H]1COCc2cc(C(F)(F)F)ncc21` [Example 500, 4-amino-N,1-dimethyl-N-((4S)-7-(trifluoromethyl)-3,4-dihydro-1H-pyrano[4,3-c]pyridin-4-yl)-1H-pyrazolo[4,3-c]quinoline-8-carboxamide]: the IC50 in the test with HCT116 WT cells was determined as 501 nM; with HCT116 MTAP null cells it was 10 nM.
Take `CCN(C(=O)c1ccc2nc(N)c3cnn(C)c3c2c1)[C@@H]1COCc2nc(C(F)(F)F)ccc21` [Example 501, 4-amino-N-ethyl-1-methyl-N-((5S)-2-(trifluoromethyl)-5,8-dihydro-6H-pyrano[3,4-b]pyridin-5-yl)-1H-pyrazolo[4,3-c]quinoline-8-carboxamide]: the half-maximal inhibitory concentration (IC50) came out at 141 nM in the test on HCT116 WT cells and 4 nM in the test with HCT116 MTAP null cells.
For the molecule `CCN(C(=O)c1ccc2nc(N)c3cnn(C)c3c2c1)[C@H]1COCc2nc(C(F)(F)F)ccc21` [Example 502, 4-amino-N-ethyl-1-methyl-N-((5R)-2-(trifluoromethyl)-5,8-dihydro-6H-pyrano[3,4-b]pyridin-5-yl)-1H-pyrazolo[4,3-c]quinoline-8-carboxamide], the half-maximal inhibitory concentration (IC50) in the test with HCT116 WT cells was 11800 nM; with HCT116 MTAP null cells it was 414 nM.
Take `Cn1ncc2c(N)nc3ccc(C(=O)N(C4CC4)[C@@H]4COCc5nc(C(F)(F)F)ccc54)cc3c21` [Example 503, 4-amino-N-cyclopropyl-1-methyl-N-((5S)-2-(trifluoromethyl)-5,8-dihydro-6H-pyrano[3,4-b]pyridin-5-yl)-1H-pyrazolo[4,3-c]quinoline-8-carboxamide]: the IC50 in the test with HCT116 WT cells amounted to 1260 nM; in the test on HCT116 MTAP null cells, 18 nM.
Regarding `CC(C)CN(C(=O)c1ccc2nc(N)c3cnn(C)c3c2c1)[C@@H]1COCc2nc(C(F)(F)F)ccc21` [Example 504, 4-amino-1-methyl-N-(2-methylpropyl)-N-((5S)-2-(trifluoromethyl)-5,8-dihydro-6H-pyrano[3,4-b]pyridin-5-yl)-1H-pyrazolo[4,3-c]quinoline-8-carboxamide], the IC50 in the test with HCT116 WT cells was found to be 144 nM; with HCT116 MTAP null cells it was 4 nM.
As to `CC(C)CN(C(=O)c1ccc2nc(N)c3cnn(C)c3c2c1)[C@H]1COCc2nc(C(F)(F)F)ccc21` [Example 505, 4-amino-1-methyl-N-(2-methylpropyl)-N-((5R)-2-(trifluoromethyl)-5,8-dihydro-6H-pyrano[3,4-b]pyridin-5-yl)-1H-pyrazolo[4,3-c]quinoline-8-carboxamide], the IC50 with HCT116 WT cells was 12100 nM; with HCT116 MTAP null cells it was 244 nM.
Consider `CN(C(=O)c1cc2c(cc1F)nc(N)c1cnn(C)c12)[C@@H]1COCc2cc(C(F)(F)F)ccc21` [Example 506, 4-amino-7-fluoro-N,1-dimethyl-N-((4S)-7-(trifluoromethyl)-3,4-dihydro-1H-2-benzopyran-4-yl)-1H-pyrazolo[4,3-c]quinoline-8-carboxamide], for which the IC50 was 34 nM with HCT116 WT cells and 4 nM in the test on HCT116 MTAP null cells.
Turning to `CN(C(=O)c1cc2c(cc1F)nc(N)c1cnn(C)c12)[C@@H]1COCc2nc(C(F)(F)F)ccc21` [Example 507, 4-amino-7-fluoro-N,1-dimethyl-N-((5S)-2-(trifluoromethyl)-5,8-dihydro-6H-pyrano[3,4-b]pyridin-5-yl)-1H-pyrazolo[4,3-c]quinoline-8-carboxamide], the IC50 in the test on HCT116 WT cells was 162 nM; in the test with HCT116 MTAP null cells, 8 nM.
Turning to `CCN(C(=O)c1cc2c(cc1F)nc(N)c1cnn(C)c12)[C@@H]1COCc2nc(C(F)(F)F)ccc21` [Example 508, 4-amino-N-ethyl-7-fluoro-1-methyl-N-((5S)-2-(trifluoromethyl)-5,8-dihydro-6H-pyrano[3,4-b]pyridin-5-yl)-1H-pyrazolo[4,3-c]quinoline-8-carboxamide], the values for the IC50 with HCT116 WT cells and with HCT116 MTAP null cells were 43 nM and 5 nM, respectively.
As for `CN(C(=O)c1ccc2nc(N)c3c(cnn3C)c2c1)[C@@H]1COCc2cc(C#N)ccc21` [Example 509, 4-amino-N-((4S)-7-cyano-3,4-dihydro-1H-2-benzopyran-4-yl)-N,3-dimethyl-3H-pyrazolo[3,4-c]quinoline-8-carboxamide], the IC50 is 8110 nM in the test on HCT116 WT cells and 107 nM in the test on HCT116 MTAP null cells.
`CN(C(=O)c1ccc2nc(N)c3c(cnn3C)c2c1)[C@@H]1COCc2cc(C(F)(F)F)ccc21` [Example 510, 4-amino-N,3-dimethyl-N-((4S)-7-(trifluoromethyl)-3,4-dihydro-1H-2-benzopyran-4-yl)-3H-pyrazolo[3,4-c]quinoline-8-carboxamide]: the IC50 came to 4590 nM in the test on HCT116 WT cells and 48 nM in the test on HCT116 MTAP null cells.
On to `CN(C(=O)c1ccc2nc(N)c3c(cnn3C)c2c1)[C@@H]1COCc2cc(C(F)(F)F)ncc21` [Example 511, 4-amino-N,3-dimethyl-N-((4S)-7-(trifluoromethyl)-3,4-dihydro-1H-pyrano[4,3-c]pyridin-4-yl)-3H-pyrazolo[3,4-c]quinoline-8-carboxamide], for which the IC50 was 17400 nM with HCT116 WT cells and 374 nM in the test on HCT116 MTAP null cells.
Consider `CN(C(=O)c1ccc2nc(N)c3c(cnn3C)c2c1)[C@@H]1COCc2nc(C(F)(F)F)ccc21` [Example 512, 4-amino-N,3-dimethyl-N-((5S)-2-(trifluoromethyl)-5,8-dihydro-6H-pyrano[3,4-b]pyridin-5-yl)-3H-pyrazolo[3,4-c]quinoline-8-carboxamide], for which the IC50 stood at 11100 nM in the test with HCT116 WT cells and 123 nM with HCT116 MTAP null cells.
Regarding `COc1ccc2c(n1)COC[C@H]2N(C)C(=O)c1cc2c(cc1F)nc(N)c1c2cnn1C` [Example 513, 4-amino-7-fluoro-N-((5S)-2-methoxy-5,8-dihydro-6H-pyrano[3,4-b]pyridin-5-yl)-N,3-dimethyl-3H-pyrazolo[3,4-c]quinoline-8-carboxamide], the IC50 was determined as 10200 nM in the test on HCT116 WT cells and 168 nM in the test with HCT116 MTAP null cells.
In the case of `CN(C(=O)c1cc2c(cc1F)nc(N)c1c2cnn1C)[C@@H]1COCc2cc(C(F)(F)F)ccc21` [Example 514, 4-amino-7-fluoro-N,3-dimethyl-N-((4S)-7-(trifluoromethyl)-3,4-dihydro-1H-2-benzopyran-4-yl)-3H-pyrazolo[3,4-c]quinoline-8-carboxamide], the IC50 was determined as 1520 nM in the test with HCT116 WT cells and 68 nM in the test with HCT116 MTAP null cells.
For `CN(C(=O)c1cc2c(cc1F)nc(N)c1c2cnn1C)[C@@H]1COCc2nc(C(F)(F)F)ccc21` [Example 515, 4-amino-7-fluoro-N,3-dimethyl-N-((5S)-2-(trifluoromethyl)-5,8-dihydro-6H-pyrano[3,4-b]pyridin-5-yl)-3H-pyrazolo[3,4-c]quinoline-8-carboxamide], the IC50 with HCT116 WT cells was determined as 3650 nM; with HCT116 MTAP null cells, 37 nM.
The like results for `Cn1ncc2c3cc(C(=O)N(C4CC4)[C@@H]4COCc5nc(C(F)(F)F)ccc54)c(F)cc3nc(N)c21` [Example 516, 4-amino-N-cyclopropyl-7-fluoro-3-methyl-N-((5S)-2-(trifluoromethyl)-5,8-dihydro-6H-pyrano[3,4-b]pyridin-5-yl)-3H-pyrazolo[3,4-c]quinoline-8-carboxamide] were, in that order, 6520 nM and 105 nM.
For `CC(C)CN(C(=O)c1cc2c(cc1F)nc(N)c1c2cnn1C)[C@@H]1COCc2nc(C(F)(F)F)ccc21` [Example 517, 4-amino-7-fluoro-3-methyl-N-(2-methylpropyl)-N-((5S)-2-(trifluoromethyl)-5,8-dihydro-6H-pyrano[3,4-b]pyridin-5-yl)-3H-pyrazolo[3,4-c]quinoline-8-carboxamide], the IC50 with HCT116 WT cells stood at 342 nM; with HCT116 MTAP null cells it was 18 nM.
On to `CC(C)CN(C(=O)c1cc2c(cc1F)nc(N)c1c2cnn1C)[C@H]1COCc2nc(C(F)(F)F)ccc21` [Example 518, 4-amino-7-fluoro-3-methyl-N-(2-methylpropyl)-N-((5R)-2-(trifluoromethyl)-5,8-dihydro-6H-pyrano[3,4-b]pyridin-5-yl)-3H-pyrazolo[3,4-c]quinoline-8-carboxamide], for which the IC50 with HCT116 WT cells came out at 9330 nM; in the test with HCT116 MTAP null cells, 965 nM.
Consider `CN(C(=O)c1cc2c(cc1Cl)nc(N)c1c2cnn1C)[C@@H]1COCc2nc(C(F)(F)F)ccc21` [Example 519, 4-amino-7-chloro-N,3-dimethyl-N-((5S)-2-(trifluoromethyl)-5,8-dihydro-6H-pyrano[3,4-b]pyridin-5-yl)-3H-pyrazolo[3,4-c]quinoline-8-carboxamide], for which the values for the half-inhibitory concentration (IC50) in the test with HCT116 WT cells and in the test with HCT116 MTAP null cells were 1390 nM and 27 nM, respectively.
In the case of `Cc1cc2nc(N)c3c(cnn3C)c2cc1C(=O)N(C)[C@@H]1COCc2nc(C(F)(F)F)ccc21` [Example 520, 4-amino-N,3,7-trimethyl-N-((5S)-2-(trifluoromethyl)-5,8-dihydro-6H-pyrano[3,4-b]pyridin-5-yl)-3H-pyrazolo[3,4-c]quinoline-8-carboxamide], the IC50 was determined as 2420 nM in the test with HCT116 WT cells and 25 nM in the test on HCT116 MTAP null cells.
On the same counts, the results for `Cc1nn(C)c2c1c(N)nc1cnc(C(=O)N(C)[C@@H]3COCc4cc(C#N)ccc43)cc12` [Example 521, 4-amino-N-((4S)-7-cyano-3,4-dihydro-1H-2-benzopyran-4-yl)-N,1,3-trimethyl-1H-pyrazolo[4,3-c][1,7]naphthyridine-8-carboxamide] are 14100 nM and 168 nM.
